In ChEMBL document CHEMBL1129306, “3-((4-(4-Chlorophenyl)piperazin-1-yl)-methyl)-1H-pyrrolo-2,3-b-pyridine: an antagonist with high affinity and selectivity for the human dopamine D4 receptor” (J Med Chem, 1996):

Columns and labels:
D(4) dopamine receptor = target: T1, D(4) dopamine receptor (Homo sapiens, UniProt P21917); assay: biochemical
T1 sequence (P21917 whole entry): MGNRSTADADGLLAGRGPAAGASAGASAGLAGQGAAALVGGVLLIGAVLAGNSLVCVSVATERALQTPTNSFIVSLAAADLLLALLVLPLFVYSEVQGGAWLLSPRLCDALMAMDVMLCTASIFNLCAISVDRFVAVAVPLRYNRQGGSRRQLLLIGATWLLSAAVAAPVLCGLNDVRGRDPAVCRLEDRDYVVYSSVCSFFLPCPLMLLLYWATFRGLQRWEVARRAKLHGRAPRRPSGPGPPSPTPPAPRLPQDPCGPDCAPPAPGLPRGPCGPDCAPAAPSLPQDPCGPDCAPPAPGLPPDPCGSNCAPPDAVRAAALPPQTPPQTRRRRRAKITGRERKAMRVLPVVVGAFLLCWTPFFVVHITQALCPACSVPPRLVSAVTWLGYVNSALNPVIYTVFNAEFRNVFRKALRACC
Description: Binding affinity towards cloned human Dopamine receptor D4 stably expressed in CHO cells was evaluated using [3H]spiperone as radioligand

D(3) dopamine receptor = D(3) dopamine receptor (Homo sapiens, UniProt P35462); assay: biochemical
Sequence of D(3) dopamine receptor (P35462 whole entry): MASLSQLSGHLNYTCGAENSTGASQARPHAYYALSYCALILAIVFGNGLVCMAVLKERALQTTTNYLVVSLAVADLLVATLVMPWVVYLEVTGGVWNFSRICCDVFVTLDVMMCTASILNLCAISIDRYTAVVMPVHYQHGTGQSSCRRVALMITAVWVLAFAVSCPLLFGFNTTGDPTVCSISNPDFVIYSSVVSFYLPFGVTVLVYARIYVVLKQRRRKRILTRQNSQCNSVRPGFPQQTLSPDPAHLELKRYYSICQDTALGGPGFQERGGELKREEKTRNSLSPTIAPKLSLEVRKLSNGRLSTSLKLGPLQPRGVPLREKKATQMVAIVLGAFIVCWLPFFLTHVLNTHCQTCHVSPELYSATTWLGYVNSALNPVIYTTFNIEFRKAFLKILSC
Description: Binding affinity towards cloned human Dopamine receptor D3 stably expressed in CHO cells was evaluated using [3H]spiperone as radioligand

Row | Structure (SMILES) | Ki (D(4) dopamine receptor) | Ki (D(3) dopamine receptor)
1 | Ic1ccc(N2CCN(Cc3c[nH]c4ncccc34)CC2)cc1 | 0.51 nM | > 4500 nM
2 | OC1(c2ccc(Cl)cc2)CCN(Cc2c[nH]c3ccccc23)CC1 | 220 nM | 100 nM
3 | c1ccc(C2CCN(Cc3c[nH]c4ccccc34)CC2)cc1 | 25 nM | 95 nM
4 | c1ccc2c(CN3CCCCC3)c[nH]c2c1 | > 2600 nM | > 3700 nM
5 | CC1CCN(Cc2c[nH]c3ccccc23)CC1 | 570 nM | 6700 nM
6 | c1ccc(N2CCN(Cc3c[nH]c4ccccc34)CC2)cc1 | 8 nM | 280 nM
